In patent US20210393742A1, “LONG-ACTING INTERLEUKIN-15 RECEPTOR AGONIST IN COMBINATION WITH ANOTHER PHARMACOLOGICALLY ACTIVE AGENT” (Nektar Therapeutics, priority 2018, published 2021):

Columns and labels:
[1] = tested on: NK cells; test: CD16 surface expression on bone marrow NK cells of Daudi lymphoma bearing mice (Example 10); format: in vivo; settings: bone marrow day 24
Procedure: (§1) Balb/c mice bearing Daudi B cell lymphoma tumors in the bone marrow (n=6/group) were intraperitoneally administered a single 0.5 mg/kg dose of the human CD38 protein targeting clinical antibody daratumumab (DARZALEX®, Janssen Biotech) or a nonspecific control antibody with a matching isotype on day 14 after Daudi cell intravenous inoculation. Additional groups were treated with (i) mono(mPEG-N-butanamide)40 kD interleukin-15 (Conjugate 1) administered subcutaneously at a dose of 0.3 mg/kg as a single agent on days 14 and 21 after Daudi cell inoculation, or (ii) a combination treatment of Conjugate 1 administered subcutaneously at doses of 0.03 mg/kg or 0.3 mg/kg on days 14 and 21 after Daudi cell inoculation and daratumumab administered intraperitoneally at a dose of 0.5 mg/kg on day 14 after Daudi cell inoculation.
Three days following the second Conjugate 1 administration (day 24 after Daudi inoculation), bone marrow was collected and the NK cell fraction was measured by flow cytometry in total bone marrow. The fraction of NK cells expressing the cell surface CD16 receptor that is known to mediate antibody dependent cellular cytotoxicity mechanism in the presence of tumor targeting antibodies, and the change in CD16 expression per cell basis on NK cells are shown in FIGS. 13A and 13B, respectively.

[2] = tested on: NK cells; test: Granzyme B expression per cell in bone marrow NK cells of Daudi lymphoma bearing mice (Example 11); format: in vivo; settings: bone marrow day 24; Conjugate 1 0.3 mg/kg; antibody 0.5 mg/kg
Procedure: as §1, with “(DARZALEX®),” for “(DARZALEX®,”
(§2) Three days following the second Conjugate 1 administration (day 24 after Daudi inoculation), bone marrow was collected and the NK cell fraction was measured by flow cytometry in total bone marrow.

[3] = tested on: Daudi B cell lymphoma; test: Daudi cell counts in bone marrow, low and high doses (Example 14); format: in vivo, mice; settings: day 24, single agent
Procedure: SCID mice (N=6/group) were intravenously inoculated with 10 million Daudi cells on Day 0 and treated with a single dose of a lower or higher dose of daratumumab (0.05 mg/kg or 5 mg/kg IP, 14 days following Daudi cell inoculation) and two doses of either lower or higher dose mono(methoxyPEG-N-butanamide)interleukin-15 (compound 1) (0.03 mg/kg or 0.6 mg/kg intravenously, one dose at each of 14 and 21 days after inoculation). Mice were also treated with the single agent therapies: daratumumab (0.05 mg/kg or 5 mg/kg IP, 14 days following Daudi cell inoculation) or two doses of mono(methoxyPEG-N-butanamide)40 kD interleukin-15 (compound 1) (0.03 mg/kg or 0.6 mg/kg intravenously, 14 and 21 days after inoculation). Daudi cell numbers in the bone marrow were assessed three days following the second dose of mono(methoxyPEG-N-butanamide)40 kD interleukin-15 (day 24) by flow cytometry as shown in FIGS. 17A and 17B.

[4] = tested on: Daudi B cell lymphoma; test: Survival in Daudi B cell lymphoma xenograft model, combination with daratumumab (Example 3); format: in vivo, mice; settings: post tumor injection; daratumumab 0.5 mg/kg IP day 14; agonist 0.3 mg/kg SC days 14, 21, 28
Procedure: SCID mice (N=8/group) inoculated intravenously with 1×10^7 Daudi B cell lymphoma cells were treated with a single dose of daratumumab (0.5 mg/kg, IP, 14 days after inoculation) and a total of three doses of mono(methoxyPEG-N-butanamide)40 kD interleukin-15 (0.3 mg/kg, SC, administered 14, 21 and 28 days after tumor inoculation). Also evaluated were untreated mice as a control and mice treated with daratumumab as a single agent therapy. Survival of tumor-inoculated mice was measured by body condition scoring as endpoint marker. Results are provided graphically in FIG. 5.

[5] = tested on: NK cells; test: NKG2A and NKG2D surface expression on bone marrow NK cells of Daudi lymphoma bearing mice (Example 4); format: in vivo; settings: bone marrow day 24; Conjugate 1 0.3 mg/kg SC days 14 and 21; antibody 0.5 mg/kg IP day 14
Procedure: as §1, with “administered mono(methoxyPEG-N-butanamide)40” for “treated with (i) mono(mPEG-N-butanamide)40”, “1)” for “1) administered”, “administered” for “(ii)”
as §2, with “marrow. Expression of the cell surface activating receptor NKG2D and the inhibitory checkpoint receptor NKG2A are shown in FIGS. 7A and 7B, respectively.” for “marrow.”

[6] = tested on: STAT5 phosphorylation in lymphocytes; test: STAT5 phosphorylation in lymphocytes at time points after administration in mice, flow cytometry; format: in vivo
From the text: Conventional approaches, such as those involving radiolabeling a compound, administering the compound in vivo, and determining its clearance, can be used to assess whether a compound proposed to be a long-acting, IL-15 receptor agonist is “long-acting” (i.e., has a clearance that is longer than that of IL-15 administered in the same in vivo system). For the purposes herein, the long-acting nature of a long-acting IL-15 receptor agonist may be, and is typically determined using flow cytometry to measure STAT5 phosphorylation in lymphocytes at various time points after administration of the agonist to be evaluated in mice. As a reference, the signal is lost by around 24 hours with IL-15, but is sustained for a period greater than that for a long-acting IL-15 agonist.

[7] = tested on: STAT5 phosphorylation in KHYG-1 cells; test: Phosphorylation of STAT5 in KHYG-1 cells (Example 7); format: cell-based, human; settings: 10 minutes
Procedure: KHYG-1 cells were cultured in RPMI-1640 medium supplemented with 20% FBS, 2 mM L-glutamine, and 20 ng/mL IL-2 (Complete growth medium) in a humidified incubator at 37° C. and 5% CO2.
One day prior to treatment with test compounds, cells were seeded at a density of 500,000 viable cells/ml in Complete growth medium and incubated overnight under normal growth conditions. On the day of the assay, KHYG-1 cells were washed 3 times with DPBS, resuspended in assay medium (RPMI-1640 medium supplemented with 20% FBS, 2 mM L-glutamine), and incubated for 4-5 hours at 37° C., 5% CO2. Cells were adjusted to the appropriate density (8×10^5 cells/mL) in assay medium and 50,000 cells/well were aliquoted into wells of a 96-well plate (View-Plate 96, Perkin-Elmer).
KHYG-1 cells were stimulated with IL-15 or a long-acting IL-15 receptor agonist (mono(mPEG-butanamide)IL-15) followed by incubation at 37° C., 5% CO2 for 10 minutes. Treated cells were lysed on ice.
Detection of phospho-STAT5 protein levels in cell lysates was performed using the Phospho(Tyr694)/Total STAT5a,b Assay Whole Cell Lysate kit (MSD product #K15163D). Relative light unit (RLU) signal corresponding to phosphor-STAT5 was collected using a Sector® Imager 2400 plate reader (MSD) with the results provided in FIG. 10A.

[8] = tested on: CD56+ human NK cells; test: Dose response of human NK cell proliferation in CFSE labeled PBMCs (Example 8); format: cell-based; settings: 5 days
Procedure: Human peripheral blood mononuclear cell (PBMCs) labeled with a CFSE preparation were incubated for 5 days in vitro in the presence of increasing doses of rhIL-15 (dose range 1 ng/ml-100 ng/ml, 5 point, 3 fold dilutions) or a long-acting IL-15 receptor agonist (mono(mPEG-butanamide)IL-15) (dose range 10 ng/ml-1000 ng/ml, 5 point, 3 fold dilutions). After the incubation period, cell proliferation as indicated by the decrease of CFSE in the cells that had undergone cell doublings was measured with flow cytometry measuring CFSE levels in CD56+ human NK cells within the PBMCs preparation.

[9] = tested on: Daudi B cell lymphoma; test: Survival in Daudi B cell lymphoma xenograft model, combination with rituximab (Example 1); format: in vivo, mice; settings: after about 30 days; rituximab 40 mg/kg IP, days 14 and 17
Procedure: At day 0, SCID mice were intravenously injected with 1×10^7 Daudi cells. The mice were divided into four groups. On days 14 and 17 post-Daudi cell injection, the groups were treated by injection as follows: Group 1: isotype control antibody, Group 2: 40 mg/kg IP rituximab, Group 3: 0.3 mg/kg mono(methoxyPEG-N-butanamide)40 kD interleukin-15 (a long-acting IL-15 receptor agonist), Group 4: 40 mg/kg IP rituximab and 0.3 mg/kg SC mono(methoxyPEG-N-butanamide)40 kD interleukin-15 (combination).
The survival rate was determined by measuring the onset of hind limb paralysis as a surrogate parameter.

[10] = Conjugate 1 0.3 mg/kg, antibody 0.5 mg/kg

Question: Which “Fraction of NK cell expressing cell surface CD16 (mean value)” value ([1]; Conjugate 1 0.3 mg/kg SC days 14 and 21, antibody 0.5 mg/kg IP day 14) does the source give for “Daratumumab: anti-CD38 monoclonal antibody (DARZALEX®, Janssen Biotech) [reference compound]” here?
Answer: The value was 81%.

Question: What about the “CD16 mean fluorescence intensity (MFI mean value)” value [1, 10] of the same substance?
Answer: Its value is 448.

Question: What about the “Relative CD16 expression compared to untreated condition” value [1, 10] of the same substance?
Answer: The value was “No increase (1x)”.

Question: What about the “Granzyme B mean fluorescence intensity (MFI mean value)” value [2] of the same substance?
Answer: Its value is 272.

Question: And the “Relative Granzyme B expression compared to untreated condition” value [2]?
Answer: Its value is “No increase (0.7x)”.

Question: What about the “intra-bone marrow tumor cells depleted” value ([3]; high dose (daratumumab 5 mg/kg; compound 1 0.6 mg/kg)) of the same substance?
Answer: The value was 58%.

Question: What about the “intra-bone marrow tumor cells depleted” value ([3]; low dose (daratumumab 0.05 mg/kg; compound 1 0.03 mg/kg)) of the same substance?
Answer: Its value is 30%.

Question: And the median survival [4]?
Answer: Its median survival is 28.5 days.

Question: What about the “% NK cells expressing NKG2A (mean, n = 6)” value [5] of the same substance?
Answer: The value was 54.83%.

Question: And the “% NK cells expressing NKG2D (mean, n = 6)” value [5]?
Answer: The value was 10.22%.

Question: For “rhIL-15: recombinant human interleukin-15 (SEQ ID NO: 1), unconjugated comparator [reference compound]”, which “time by which the STAT5 phosphorylation signal is lost” value [6] is on record?
Answer: Its value is “around 24 hours”.

Question: And the “phosphorylation of STAT5” value [7]?
Answer: Its value is “dose-dependent phosphorylation of STAT5”.

Question: What about the “EC50 (ng/ml)-% proliferation” value [8] of the same substance?
Answer: The value was 2.28 ng/mL.

Question: And the Emax-% proliferation [8]?
Answer: Its Emax-% proliferation is 69.6%.

Question: How did the survival [9] turn out when “rituximab: anti-CD20 monoclonal antibody (Rituxan®, Genentech) [reference compound]” was run?
Answer: Its survival is 0%.
